Reference: paper PMC11003488 (Journal of Enzyme Inhibition and Medicinal Chemistry, 2023)
Like-named read-outs stand apart in the source and are kept apart here.

Assays:
[1] = system: CCRF-CEM; test: NCI-60 SRB growth inhibition, one-dose and five-dose; type: cell-based; conditions: Homo sapiens
[2] = system: HL-60(TB); test: cells; type: cell-based; conditions: Homo sapiens
[3] = system: RPMI-8226; test: NCI-60 SRB growth inhibition, one-dose and five-dose; type: cell-based; conditions: Homo sapiens
[4] = system: SR; test: as above; type: cell-based; conditions: Homo sapiens
[5] = system: A549/ATCC; test: as above; type: cell-based; conditions: Homo sapiens
[6] = system: HOP-92; test: as above; type: cell-based; conditions: Homo sapiens
[7] = system: NCI-H226; test: as above; type: cell-based; conditions: Homo sapiens
[8] = system: NCI-H460; test: as above; type: cell-based; conditions: Homo sapiens
[9] = system: COLO 205; test: as above; type: cell-based; conditions: Homo sapiens
[10] = system: HCT-116; test: as above; type: cell-based; conditions: Homo sapiens
[11] = system: HCT-15; test: as above; type: cell-based; conditions: Homo sapiens
[12] = system: HT29; test: as above; type: cell-based; conditions: Homo sapiens
[13] = system: KM12; test: as above; type: cell-based; conditions: Homo sapiens
[14] = system: SW-620; test: as above; type: cell-based; conditions: Homo sapiens
[15] = system: SF-268; test: as above; type: cell-based; conditions: Homo sapiens
[16] = system: SNB-19; test: as above; type: cell-based; conditions: Homo sapiens
[17] = system: SNB-75; test: as above; type: cell-based; conditions: Homo sapiens
[18] = system: U251; test: as above; type: cell-based; conditions: Homo sapiens
[19] = system: MALME-3M; test: as above; type: cell-based; conditions: Homo sapiens
[20] = system: M14; test: as above; type: cell-based; conditions: Homo sapiens
[21] = system: MDA-MB-435; test: as above; type: cell-based; conditions: Homo sapiens
[22] = system: SK-MEL-5; test: as above; type: cell-based; conditions: Homo sapiens
[23] = system: UACC-62; test: as above; type: cell-based; conditions: Homo sapiens
[24] = system: IGROV1; test: as above; type: cell-based; conditions: Homo sapiens
[25] = system: OVCAR-3; test: as above; type: cell-based; conditions: Homo sapiens
[26] = system: OVCAR-4; test: as above; type: cell-based; conditions: Homo sapiens
[27] = system: OVCAR-5; test: as above; type: cell-based; conditions: Homo sapiens
[28] = system: OVCAR-8; test: as above; type: cell-based; conditions: Homo sapiens, OVCAR-8, read-out: percent growth inhibition
[29] = system: NCI/ADR-RES; test: as above; type: cell-based; conditions: Homo sapiens
[30] = system: 786-0; test: as above; type: cell-based; conditions: Homo sapiens
[31] = system: A498; test: as above; type: cell-based; conditions: Homo sapiens
[32] = system: ACHN; test: as above; type: cell-based; conditions: Homo sapiens
[33] = system: CAKI-1; test: as above; type: cell-based; conditions: Homo sapiens
[34] = system: SN12C; test: as above; type: cell-based; conditions: Homo sapiens
[35] = system: TK-10; test: as above; type: cell-based; conditions: Homo sapiens
[36] = system: DU-145; test: as above; type: cell-based; conditions: Homo sapiens
[37] = system: MCF7; test: as above; type: cell-based; conditions: Homo sapiens
[38] = system: HS 578 T; test: as above; type: cell-based; conditions: Homo sapiens
[39] = system: BT-549; test: as above; type: cell-based; conditions: Homo sapiens
[40] = system: T-47D; test: as above; type: cell-based; conditions: Homo sapiens, T47D
[41] = system: MDA-MB-468; test: as above; type: cell-based; conditions: Homo sapiens
[42] = system: NCI 60-cell line panel (full panel); test: NCI-60 SRB growth inhibition, full panel mean / MG-MID; type: cell-based, human; conditions: for GI50: Homo sapiens, 60 cell
[43] = read-out: percent growth inhibition

With `O=C(/C=C/c1cccnc1)c1cccc(NCc2csc3ccccc23)c1` [Compound 5d, (E)-1–(3-((benzo[b]thiophen-3-ylmethyl)amino)phenyl)-3-(pyridin-3-yl)prop-2-en-1-one] the GI50 [1] was 3.01 µM, the inhibition at 10 µM [1, 43] was 134% and the GI50 ([2]; HL-60) was 2.73 µM. For the same compound, the inhibition at 10 µM ([2]; HL-60, read-out: percent growth inhibition) was 135%, the GI50 ([3]; RPMI-8226) was 1.99 µM and the inhibition at 10 µM ([3]; RPMI-8226, read-out: percent growth inhibition) was 119%. It also gave a GI50 [4] of 2.51 µM, a GI50 ([5]; A549) of 11.5 µM and an inhibition at 10 µM ([5]; A549, read-out: percent growth inhibition) of 53.1%. For the same compound, the GI50 ([6]; HOP-92) was 10.2 µM, the inhibition at 10 µM ([6]; HOP-92, read-out: percent growth inhibition) was 39.4% and the GI50 ([7]; NCI-H226) was 3.43 µM. It also gave an inhibition at 10 µM ([7]; NCI-H226, read-out: percent growth inhibition) of 111%, a GI50 ([8]; NCI-H460) of 4.98 µM and an inhibition at 10 µM ([8]; NCI-H460, read-out: percent growth inhibition) of 91.3%. It also gave a GI50 ([9]; COLO 205) of 11.6 µM, an inhibition at 10 µM ([9]; COLO 205, read-out: percent growth inhibition) of 86.5% and a GI50 ([10]; HCT-116, HCT-116, five-dose screening) of 1.82 µM. It also gave an inhibition at 10 µM ([10]; HCT-116, read-out: percent growth inhibition) of 195%, a GI50 ([11]; HCT-15) of 1.92 µM and an inhibition at 10 µM ([11]; HCT-15, read-out: percent growth inhibition) of 141%. For the same compound, the GI50 ([12]; HT-29) was 3.12 µM, the inhibition at 10 µM ([12]; HT-29, read-out: percent growth inhibition) was 165% and the GI50 ([13]; KM12) was 3.58 µM. It also gave an inhibition at 10 µM ([13]; KM12, read-out: percent growth inhibition) of 158%, a GI50 ([14]; SW-620) of 1.84 µM and an inhibition at 10 µM ([14]; SW-620, read-out: percent growth inhibition) of 166%. For the same compound, the GI50 ([15]; SF-268) was 12 µM, the inhibition at 10 µM ([15]; SF-268, read-out: percent growth inhibition) was 69.7% and the GI50 ([16]; SNB-19) was 3.86 µM. For the same compound, the inhibition at 10 µM ([16]; SNB-19, read-out: percent growth inhibition) was 134%, the GI50 ([17]; SNB-75) was 3.34 µM and the inhibition at 10 µM ([17]; SNB-75, read-out: percent growth inhibition) was 69.9%. For the same compound, the GI50 ([18]; U-251) was 1.92 µM, the inhibition at 10 µM ([18]; U-251, read-out: percent growth inhibition) was 198% and the GI50 [19] was 5.92 µM. It also gave an inhibition at 10 µM [19, 43] of 104%, a GI50 ([20]; M14) of 4.14 µM and an inhibition at 10 µM ([20]; M14, read-out: percent growth inhibition) of 129%. The GI50 ([21]; MDA-MB-435) was 2.55 µM, the inhibition at 10 µM ([21]; MDA-MB-435, read-out: percent growth inhibition) was 121% and the GI50 ([22]; SK-MEL-5) was 2.89 µM. For the same compound, the inhibition at 10 µM ([22]; SK-MEL-5, read-out: percent growth inhibition) was 163%, the GI50 ([23]; UACC-62) was 3.75 µM and the inhibition at 10 µM ([23]; UACC-62, read-out: percent growth inhibition) was 151%. The GI50 ([24]; IGROV-1) was 3.32 µM, the inhibition at 10 µM ([24]; IGROV-1, read-out: percent growth inhibition) was 108% and the GI50 ([25]; OVCAR-3) was 3.19 µM. It also gave an inhibition at 10 µM ([25]; OVCAR-3, read-out: percent growth inhibition) of 157%, a GI50 ([26]; OVCAR-4) of 4.27 µM and an inhibition at 10 µM ([26]; OVCAR-4, read-out: percent growth inhibition) of 82.5%. For the same compound, the GI50 ([27]; OVCAR-5) was 7.07 µM, the inhibition at 10 µM ([27]; OVCAR-5, read-out: percent growth inhibition) was 91.5% and the inhibition at 10 µM [28] was 119%. It also gave a GI50 [29] of 2.15 µM, an inhibition at 10 µM [29, 43] of 101% and a GI50 ([30]; 786-0) of 8.65 µM. The inhibition at 10 µM ([30]; 786-0, read-out: percent growth inhibition) was 182%, the GI50 ([31]; A498) was 12.1 µM and the inhibition at 10 µM ([31]; A498, read-out: percent growth inhibition) was 36.5%. For the same compound, the GI50 [32] was 2.82 µM, the inhibition at 10 µM [32, 43] was 155% and the GI50 ([33]; CAKI-1) was 9.3 µM. The inhibition at 10 µM ([33]; CAKI-1, read-out: percent growth inhibition) was 98.3%, the GI50 [34] was 3.02 µM and the inhibition at 10 µM [34, 43] was 128%. For the same compound, the GI50 ([35]; TK-10) was 6.18 µM, the inhibition at 10 µM ([35]; TK-10, read-out: percent growth inhibition) was 60% and the GI50 ([36]; DU-145) was 7.35 µM. It also gave an inhibition at 10 µM ([36]; DU-145, read-out: percent growth inhibition) of 71.9%, a GI50 ([37]; MCF7) of 1.58 µM and an inhibition at 10 µM ([37]; MCF7, read-out: percent growth inhibition) of 176%. For the same compound, the GI50 [38] was 4.49 µM, the inhibition at 10 µM [38, 43] was 76.9% and the GI50 ([39]; BT-549) was 2.75 µM. For the same compound, the inhibition at 10 µM ([39]; BT-549, read-out: percent growth inhibition) was 174%, the GI50 [40] was 2.83 µM and the inhibition at 10 µM [40, 43] was 91.2%. The GI50 ([41]; MDA-MB-468) was 1.82 µM, the inhibition at 10 µM ([41]; MDA-MB-468, read-out: percent growth inhibition) was 162% and the GI50 ([42]; read-out: Full panel GI50 mean) was 4.74 µM. For the same compound, the GI50 ([42]; read-out: Full panel MG-MID GI50) was 4.74 µM and the “Full panel Mean GI %” value ([42]; mean over NCI-60 panel, single dose 10 µM) was 120.02%.
